Measurements published in patent US20110256510A1, “Use of Quaternary Ammonium Compounds to Inhibit Endogenous MMPs in Tooth Dentin” (priority 2009, published 2011).
Where “and” joins values, the source holds several entries; their conditions need not be identical. Equal values may be shown once. Where a name gives a salt, the structure may show the parent alone.

Key:
[1] = system: Clostridium histolyticum collagenase; assay: Bacterial collagenase-based anti-MMP screening assay (SDS-PAGE gel analysis of undegraded Type I collagen); assay type: biochemical
Method: Bacterial collagenase-based anti-MMP screening assay: This assay employs purified Clostridium histolyticum collagenase (hereinafter “collagenase”) as the test enzyme for screening anti-MMP activity of compounds of interest. The screening assay involves incubating a constant concentration of collagenase with Type I soluble collagen and quantifying the amount of Type I collagen that remains undegraded in the presence of collagenase in the presence and absence of different test compounds. The basic assay composition comprises 50 μg of Type I collagen (e.g., human placental; Cat. # C7521; Sigma-Aldrich, St. Louis, […]., USA) and 50 μg of collagenase (e.g., Clostridium histolyticum E.C. 3.4.24.3; Cat. No. C7667 (1909 CDU/mg solid); Sigma-Aldrich, St. Louis, […]., USA) in a physiological buffer (pH 7.4) containing zinc ions, with a total reaction volume of 60 μl. […] The buffer composition used comprises […] Tris Base, 200 mM NaCl, 10 mM CaCl2, 0.05 mM ZnCl2, 3 mM NaN3 adjusted to […] with 1 N HCl.
Compounds of interest are added to the reaction system described above to assess their ability to inhibit collagenase degradation of collagen. As test compounds vary with respect to molecular weight and affinity for the dentin matrix, a range of concentrations (wt %) for each compound may be added to the basic reaction. Test compounds may be diluted approximately 1:5 in the final reaction volume by the subsequent sequential addition of solutions containing collagenase, collagen, and buffer.
The enzyme and the collagen are kept on ice. Twenty μL of enzyme (concentration of 5 μg protein/μL×20 μL=100 μg of enzyme) protein was incubated with 5 μL of loading buffer and 20 μL of inhibitor. The reaction was started by adding 20 μL of type I collagen (5 μg/μL×20=100 μg collagen). Thus, the total volume was 65 μL. The total protein was 100 μg enzyme protein plus 100 μg of collagen=200 μg protein in 65 μL. Thirty μL of that mixture was applied to the gel (30/65×200 μg protein=92.3 μg protein. Because the total volume was 65 μL and the inhibitor volume was 20 μL, the inhibitor was diluted 3.25-fold.
Following assembly, reactions are incubated for one hour at 37° C. The incubation reactions were terminated by submerging the tube in boiling water for 3 min. After termination, 30 μL of each reaction assay containing 92 μg of total protein is loaded onto a 7.5% SDS-PAGE polyacrylamide gel (BioRad, Hercules, Calif.) and subjected to electrophoresis at 200 V for 60 min. SDS-PAGE gels are routinely run with samples and various controls in the following order. The nature of the controls is further described below. Controls include collagenase alone (lane 1); collagen alone (lane 2); and collagen mixed with collagenase (lane 3). Assay reactions containing collagen mixed with collagenase plus various concentrations of the test collagenase inhibitor compounds are then loaded on the gel starting with lane 4 (loaded in order of decreasing compound concentration).
Following electrophoresis of the samples, the gel is stained in 0.25% Coomassie Brilliant Blue overnight and destained for 8 hrs in water prior to imaging. After destaining, the gels are digitally scanned to permit quantification of the amount of undegraded collagen present in each reaction, relative to the collagen standard in lane 2.
With regards to the controls, both Type I collagen and collagenase are proteins too large to migrate very far into the SDS-PAGE gel.

[2] = molecular target: T1, human recombinant MMP-9 (Homo sapiens, UniProt P14780); assay: Human MMP-9-based anti-MMP screening assay (Sensolyte Generic MMP colorimetric kit); assay type: biochemical; conditions: soluble human MMP-9
T1 construct: purchased AnaSpec, Inc. 72009
T1 sequence (P14780 94-707): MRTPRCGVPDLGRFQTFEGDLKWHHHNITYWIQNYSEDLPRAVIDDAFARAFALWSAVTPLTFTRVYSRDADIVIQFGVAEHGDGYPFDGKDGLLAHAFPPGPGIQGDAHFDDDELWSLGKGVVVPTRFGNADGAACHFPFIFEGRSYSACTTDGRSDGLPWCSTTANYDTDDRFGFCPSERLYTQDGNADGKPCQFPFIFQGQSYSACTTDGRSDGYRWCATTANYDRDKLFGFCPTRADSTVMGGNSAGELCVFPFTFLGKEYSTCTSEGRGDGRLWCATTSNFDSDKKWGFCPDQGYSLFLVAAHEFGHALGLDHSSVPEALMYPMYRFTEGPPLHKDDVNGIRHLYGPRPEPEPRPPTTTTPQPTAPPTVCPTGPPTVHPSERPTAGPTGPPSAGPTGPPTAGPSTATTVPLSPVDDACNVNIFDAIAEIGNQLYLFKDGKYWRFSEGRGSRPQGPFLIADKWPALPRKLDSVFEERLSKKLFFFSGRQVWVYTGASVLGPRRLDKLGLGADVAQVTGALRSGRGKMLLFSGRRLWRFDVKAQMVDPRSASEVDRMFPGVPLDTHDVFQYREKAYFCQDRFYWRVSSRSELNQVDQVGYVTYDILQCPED
Method: Human MMP-9-based anti-MMP screening assay: This assay employed purified human recombinant MMP-9 (Cat. No. 72009) and the Sensolyte Generic MMP colorimetric assay kit (Cat. No. 72095) from AnaSpec, Inc. (San Jose, Calif., USA) for screening anti-MMP activity of compounds of interest. This assay involves incubating a constant concentration of human MMP-9 with a proprietary thiopeptide substrate and quantifying the amount of substrate cleaved by the […] in the presence and absence of different test compounds. Cleavage of the proprietary thiopeptide substrate is quantitated by evaluating color production. Reactions may be assembled in a 96-well plate. After incubation for 30 minutes at 37° C., reactions are stopped and absorption measured at 412 nm using a 96-well plate reader synergy HT (BioTek Instruments, Inc., Winooski, Vt., USA).

With “pyridinium tribromide [reference compound]” the “COLLAGENASE INHIBITION (%)” value ([1]; inhibitor 1 wt %) was “no inhibitory activity”.
With `CC(=O)O.CC(=O)O.NC(=N\CCCCCC/N=C(N)/N=C(\N)Nc1ccc(Cl)cc1)/N=C(\N)Nc1ccc(Cl)cc1` [Chlorhexidine diacetate, chlorhexidine diacetate, reference compound] the “COLLAGENASE INHIBITION (%)” value ([1]; inhibitor 0.02 wt %) was 1%, the “COLLAGENASE INHIBITION (%)” value ([1]; inhibitor 0.02 wt %, listed as CHX) was “did not inhibit collagenase” and the “COLLAGENASE INHIBITION (%)” value ([1]; inhibitor 0.2 wt %) was 74%. The “COLLAGENASE INHIBITION (%)” value ([1]; inhibitor 0.2 wt %, listed as CHX) was 69%.
`C=C(C)C(=O)OCC[N+](C)(C)C.[Cl-]` [METMAC, [2-(Methacryloyloxy)ethyl]trimethylammonium chloride] was tested, and the “% MMP ACTIVITY INHIBITION (t = 30 minutes)” value (shortened to “% MMP ACTIVITY INHIBITION”) ([2]; inhibitor 10 wt %) was 42%, the “% MMP ACTIVITY INHIBITION” value ([2]; inhibitor 24 wt %) was 71% and the “COLLAGENASE INHIBITION (%)” value ([1]; inhibitor 1.3 wt %) was 39%. For the same compound, the “COLLAGENASE INHIBITION (%)” value ([1]; inhibitor 6.4 wt %) was 56%, the inhibited collagenase ([1]; inhibitor 12.85%) was 69% and the “COLLAGENASE INHIBITION (%)” value ([1]; inhibitor 12.9 wt %) was 69%. For the same compound, the “COLLAGENASE INHIBITION (%)” value ([1]; inhibitor 25.7 wt %) was 100%.
`C=CC[N+](C)(C)CC=C.[Cl-]` [DDAC, Diallyldimethylammonium chloride] was tested, and the “% MMP ACTIVITY INHIBITION” value ([2]; inhibitor 10 wt %) was 7%, the “% MMP ACTIVITY INHIBITION” value ([2]; inhibitor 24 wt %) was 16% and the “COLLAGENASE INHIBITION (%)” value ([1]; inhibitor 0.5 wt %) was 50%. For the same compound, the “COLLAGENASE INHIBITION (%)” value ([1]; inhibitor 1 wt %) was 56%, the “COLLAGENASE INHIBITION (%)” value ([1]; inhibitor 3 wt %) was 59% and the “COLLAGENASE INHIBITION (%)” value ([1]; inhibitor 6 wt %) was 66%. For the same compound, the “COLLAGENASE INHIBITION (%)” value ([1]; inhibitor 12 wt %) was 73%.
For `C=CC(=O)OCC[N+](C)(C)C.[Cl-]` [ATA, 2-Acryloxyethyltrimethylammonium chloride], the “% MMP ACTIVITY INHIBITION” value ([2]; inhibitor 10 wt %) was 79%, the “% MMP ACTIVITY INHIBITION” value ([2]; inhibitor 24 wt %) was 82% and the “COLLAGENASE INHIBITION (%)” value ([1]; inhibitor 0.5 wt %) was 57%. The “COLLAGENASE INHIBITION (%)” value ([1]; inhibitor 1 wt %) was 55%, the “COLLAGENASE INHIBITION (%)” value ([1]; inhibitor 4 wt %) was 44% and the “COLLAGENASE INHIBITION (%)” value ([1]; inhibitor 8 wt %) was 49%. The “COLLAGENASE INHIBITION (%)” value ([1]; inhibitor 16 wt %) was 73%.
In the case of `C=C(C)C(=O)NCCC[N+](C)(C)C.[Cl-]` [MAPTAC, [3-(Methacryloylamino)propyl]trimethylammonium chloride], the “% MMP ACTIVITY INHIBITION” value ([2]; inhibitor 10 wt %) is reported as 6%, the “% MMP ACTIVITY INHIBITION” value ([2]; inhibitor 24 wt %) is reported as 17% and the “COLLAGENASE INHIBITION (%)” value ([1]; inhibitor 0.1 wt %) is reported as 41%. For the same compound, the “COLLAGENASE INHIBITION (%)” value ([1]; inhibitor 0.5 wt %) was 39%, the “COLLAGENASE INHIBITION (%)” value ([1]; inhibitor 1 wt %) was 53% and the “COLLAGENASE INHIBITION (%)” value ([1]; inhibitor 5 wt %) was 53%. For the same compound, the “COLLAGENASE INHIBITION (%)” value ([1]; inhibitor 10 wt %) was 55%.
In the case of `Cc1c(OCC(O)C[N+](C)(C)C)cc2c(=O)c3ccccc3sc2c1C.[Cl-]` (stereo not drawn) [OTX, [3-(3,4-dimethyl-9-oxo-9H-thioxanthen-2-yloxy)-2-hydroxypropyl] trimethyl ammonium chloride], the “COLLAGENASE INHIBITION (%)” value ([1]; inhibitor 0.1 wt %) is reported as 57% and the “COLLAGENASE INHIBITION (%)” value ([1]; inhibitor 0.2 wt %) is reported as 86%.
For `C=C(C)C(=O)OCC[N+](C)(C)C` [MCMS, 2-[(Methacryloyloxy)ethyl]trimethylammonium methyl sulfate], the “% MMP ACTIVITY INHIBITION” value ([2]; inhibitor 10 wt %) was 55%, the “% MMP ACTIVITY INHIBITION” value ([2]; inhibitor 24 wt %) was 84% and the “COLLAGENASE INHIBITION (%)” value ([1]; inhibitor 0.5 wt %) was 73%. The “COLLAGENASE INHIBITION (%)” value ([1]; inhibitor 1 wt %) was 70%, the “COLLAGENASE INHIBITION (%)” value ([1]; inhibitor 4 wt %) was 65% and the “COLLAGENASE INHIBITION (%)” value ([1]; inhibitor 8 wt %) was 62%. The “COLLAGENASE INHIBITION (%)” value ([1]; inhibitor 16 wt %) was 87%.
`O=C(O)CN(CCN(CC(=O)O)CC(=O)O)CC(=O)O` [EDTA, reference compound] was tested, and the inhibited collagenase ([1]; inhibitor 10 mM (control lane)) was 100% and 87%.
“benzalkonium chloride [reference compound]” was tested, and the “COLLAGENASE INHIBITION (%)” value ([1]; inhibitor 10 wt %) was “no inhibitory activity”.
In the case of `CCCCCCCCCCCCCCCC[N+](C)(C)C.[Br-]` [hexadecyl trimethyl ammonium bromide, reference compound], the “inhibitory activity against collagenase” value ([1]; inhibitor 0.15% in ethanol) is reported as “no inhibitory activity”.
